Measured values reported in patent publication US20250243245A1 (priority 2022, published 2025).
Where a SMILES comes first, the peptide text is derived from it.

Test system: E. coli strain BL21
Settings: BL21, 24 h

| Compound | MIC |
| --- | --- |
| CC[C@H](C)[C@H](NC(=O)[C@H](CCCCN)NC(=O)[C@H](CC(C)C)NC(=O)[C@@H](NC(=O)[C@H](CCCCN)NC(=O)[C@H](CCCNC(=N)N)NC(=O)[C@H](C)NC(=O)[C@@H]1CCCN1C(=O)[C@H](CCCCN)NC(=O)[C@@H](N)CCCNC(=N)N)C(C)C)C(=O)N[C@@H](CC(C)C)C(=O)NCC(=O)N[C@@H](CCCNC(=N)N)C(=O)NCC(=O)N[C@@H](CO)C(=O)N[C@@H](CCC(=O)O)C(=O)N[C@@H](Cc1ccccc1)C(=O)N[C@@H](Cc1c[nH]c2ccccc12)C(=O)N[C@@H](CCC(N)=O)C(=O)N[C@@H](CCCCN)C(=O)N[C@@H](CCCNC(=N)N)C(=O)N[C@H](C(=O)N[C@@H](CCCNC(=N)N)C(=O)N[C@@H](CCCNC(=N)N)C(=O)N[C@@H](Cc1c[nH]c2ccccc12)C(=O)N[C@@H](CCCNC(=N)N)C(=O)N[C@@H](CCCNC(=N)N)C(=O)O)C(C)C [Peptide 27P-3] (H-RKPARKVLKILGRGSEFWQKRVRRWRR-OH; N-terminus and C-terminus assumed) | 10 to 20 mM |
| CC[C@H](C)[C@H](NC(=O)[C@H](CCCNC(=N)N)NC(=O)[C@H](CCCNC(=N)N)NC(=O)[C@H](CCC(N)=O)NC(=O)[C@H](Cc1c[nH]c2ccccc12)NC(=O)[C@H](Cc1ccccc1)NC(=O)CNC(=O)[C@@H]1CCCN1C(=O)[C@H](CO)NC(=O)CNC(=O)[C@H](Cc1ccc(O)cc1)NC(=O)CNC(=O)[C@H](CO)NC(=O)CNC(=O)[C@H](CCCNC(=N)N)NC(=O)[C@H](Cc1c[nH]c2ccccc12)NC(=O)[C@H](Cc1c[nH]c2ccccc12)NC(=O)[C@H](CCCNC(=N)N)NC(=O)[C@H](Cc1c[nH]c2ccccc12)NC(=O)[C@H](Cc1c[nH]c2ccccc12)NC(=O)[C@H](CCCNC(=N)N)NC(=O)[C@@H](N)CCCNC(=N)N)C(=O)N[C@@H](CCCNC(=N)N)C(=O)N[C@@H](CCCNC(=N)N)C(=O)N[C@@H](Cc1c[nH]c2ccccc12)C(=O)N[C@@H](CCCNC(=N)N)C(=O)N[C@@H](CCCNC(=N)N)C(=O)O [Peptide 27P-1] (H-RRWWRWWRGSGYGSPGFWQRRIRRWRR-OH; N-terminus and C-terminus assumed) | >20 mM |
| CC(C)C[C@H](NC(=O)[C@H](CCC(N)=O)NC(=O)[C@H](CCC(=O)O)NC(=O)[C@H](CO)NC(=O)[C@H](CC(C)C)NC(=O)[C@H](CCCNC(=N)N)NC(=O)[C@@H]1CCCN1C(=O)[C@@H](N)CCCCN)C(=O)N[C@@H](CCC(N)=O)C(=O)N[C@@H](CCC(=O)O)C(=O)N[C@@H](CC(C)C)C(=O)N[C@H](C(=O)N[C@@H](CCCNC(=N)N)C(=O)N[C@@H](CCCNC(=N)N)C(=O)N[C@@H](CC(C)C)C(=O)N[C@@H](CC(C)C)C(=O)N[C@@H](CC(=O)O)C(=O)N[C@@H](CO)C(=O)N1CCC[C@H]1C(=O)N[C@@H](CC(C)C)C(=O)N[C@@H](CCC(=O)O)C(=O)N[C@@H](CCCNC(=N)N)C(=O)N[C@@H](CCCNC(=N)N)C(=O)N[C@@H](Cc1c[nH]c2ccccc12)C(=O)N[C@@H](Cc1c[nH]c2ccccc12)C(=O)N[C@@H](CCC(=O)O)C(=O)N[C@@H](Cc1c[nH]c2ccccc12)C(=O)N[C@@H](Cc1c[nH]c2ccccc12)C(=O)N[C@@H](CCCNC(=N)N)C(=O)N[C@@H](CCCNC(=N)N)C(=O)O)[C@@H](C)O [UGK-33] (H-KPRLSEQLQELTRRLLDSPLERRWWEWWRR-OH; N-terminus and C-terminus assumed) | >20 mM |
| CC[C@H](C)[C@H](NC(=O)[C@H](CCCCN)NC(=O)[C@H](CC(C)C)NC(=O)[C@@H](NC(=O)[C@H](CCCCN)NC(=O)[C@H](CCCCN)NC(=O)[C@@H](NC(=O)[C@H](CC(C)C)NC(=O)[C@H](CCCCN)NC(=O)[C@H](CCCCN)NC(=O)CNC(=O)[C@@H]1CCCN1C(=O)[C@H](CO)NC(=O)CNC(=O)[C@H](Cc1ccc(O)cc1)NC(=O)CNC(=O)[C@H](CO)NC(=O)CNC(=O)[C@H](CCCNC(=N)N)NC(=O)[C@H](CCCNC(=N)N)NC(=O)[C@H](Cc1c[nH]c2ccccc12)NC(=O)[C@H](CCCNC(=N)N)NC(=O)[C@H](CCCNC(=N)N)NC(=O)[C@@H](NC(=O)[C@H](CCCNC(=N)N)NC(=O)[C@H](CCCNC(=N)N)NC(=O)[C@H](CCC(N)=O)NC(=O)[C@H](Cc1c[nH]c2ccccc12)NC(=O)[C@@H](N)Cc1ccccc1)[C@@H](C)CC)[C@@H](C)CC)[C@@H](C)CC)C(=O)N[C@@H](CC(C)C)C(=O)O [Peptide 30P-2] (H-FWQRRIRRWRRGSGYGSPGKKLIKKILKIL-OH; N-terminus and C-terminus assumed) | 1.25 to 2.5 mM |
| CC[C@H](C)[C@H](NC(=O)[C@H](CCCNC(=N)N)NC(=O)[C@H](CCCNC(=N)N)NC(=O)[C@H](CCC(N)=O)NC(=O)[C@H](Cc1c[nH]c2ccccc12)NC(=O)[C@H](Cc1ccccc1)NC(=O)CNC(=O)[C@@H]1CCCN1C(=O)[C@H](CO)NC(=O)CNC(=O)[C@H](CCC(=O)O)NC(=O)[C@H](CC(C)C)NC(=O)[C@H](CO)NC(=O)[C@H](CCCCN)NC(=O)[C@H](CC(C)C)NC(=O)[C@@H](NC(=O)[C@H](CCC(=O)O)NC(=O)[C@H](CC(C)C)NC(=O)[C@H](CC(C)C)NC(=O)[C@H](CCCCN)NC(=O)[C@H](CCC(=O)O)NC(=O)[C@@H]1CCCN1C(=O)[C@H](CC(C)C)NC(=O)[C@H](CCCCN)NC(=O)[C@@H](N)CCCCN)[C@@H](C)CC)C(=O)N[C@@H](CCCNC(=N)N)C(=O)N[C@@H](CCCNC(=N)N)C(=O)N[C@@H](Cc1c[nH]c2ccccc12)C(=O)N[C@@H](CCCNC(=N)N)C(=O)N[C@@H](CCCNC(=N)N)C(=O)O [UGK-25] (H-KKLPEKLLEILKSLEGSPGFWQRRIRRWRR-OH; N-terminus and C-terminus assumed) | 2.5 to 5 mM |
| CC[C@H](C)[C@H](N)C(=O)N[C@@H](CCC(=O)O)C(=O)N[C@@H](CCCNC(=N)N)C(=O)N[C@@H](CO)C(=O)N[C@@H](CCCNC(=N)N)C(=O)N[C@@H](CC(N)=O)C(=O)N[C@@H](CC(C)C)C(=O)N[C@@H](CC(=O)O)C(=O)N[C@@H](Cc1c[nH]c2ccccc12)C(=O)N[C@@H](Cc1ccc(O)cc1)C(=O)N[C@@H](CCCCN)C(=O)NCC(=O)N1CCC[C@H]1C(=O)N[C@H](C(=O)N[C@@H](CC(C)C)C(=O)N[C@@H](CC(C)C)C(=O)N[C@@H](CC(=O)O)C(=O)N[C@@H](C)C(=O)N[C@@H](CC(C)C)C(=O)N[C@@H](CCCCN)C(=O)N[C@@H](CC(N)=O)C(=O)N[C@@H](CC(C)C)C(=O)N[C@@H](CC(N)=O)C(=O)N[C@@H](CCC(=O)O)C(=O)NCC(=O)N[C@@H](CCCCN)C(=O)N[C@@H](CCCNC(=N)N)C(=O)N1CCC[C@H]1C(=O)N[C@@H](CO)C(=O)N[C@@H](CC(=O)O)C(=O)N[C@@H](CCCCN)C(=O)O)[C@@H](C)O [Peptide I31LB] (H-IERSRNLDWYKGPTLLDALKNLNEGKRPSDK-OH; N-terminus and C-terminus assumed) | >20 mM |
| CC[C@H](C)[C@H](NC(=O)[C@H](CCCNC(=N)N)NC(=O)[C@H](CCCNC(=N)N)NC(=O)[C@H](CCC(N)=O)NC(=O)[C@H](Cc1c[nH]c2ccccc12)NC(=O)[C@H](Cc1ccccc1)NC(=O)CNC(=O)[C@@H]1CCCN1C(=O)[C@H](CO)NC(=O)CNC(=O)[C@H](CCCCN)NC(=O)[C@H](CC(C)C)NC(=O)[C@H](CO)NC(=O)[C@H](CCCCN)NC(=O)[C@H](CC(C)C)NC(=O)[C@@H](NC(=O)[C@H](CCC(=O)O)NC(=O)[C@H](CC(C)C)NC(=O)[C@H](CC(C)C)NC(=O)[C@H](CCCCN)NC(=O)[C@H](CCC(N)=O)NC(=O)[C@@H]1CCCN1C(=O)[C@H](CC(C)C)NC(=O)[C@H](CCCCN)NC(=O)[C@@H](N)CCCCN)[C@@H](C)CC)C(=O)N[C@@H](CCCNC(=N)N)C(=O)N[C@@H](CCCNC(=N)N)C(=O)N[C@@H](Cc1c[nH]c2ccccc12)C(=O)N[C@@H](CCCNC(=N)N)C(=O)N[C@@H](CCCNC(=N)N)C(=O)O [UGK-21] | 1.25 to 2.5 mM |
| CC[C@H](C)[C@H](NC(=O)[C@H](CC(N)=O)NC(=O)[C@H](CCCNC(=N)N)NC(=O)[C@H](CCC(N)=O)NC(=O)[C@H](Cc1c[nH]c2ccccc12)NC(=O)[C@H](CCC(N)=O)NC(=O)[C@@H](N)Cc1ccccc1)C(=O)N[C@@H](CCCNC(=N)N)C(=O)N[C@@H](CCCCN)C(=O)N[C@H](C(=O)N[C@@H](CCCNC(=N)N)C(=O)O)C(C)C [Peptide 11P-2, FQWORNIRKVR, reference compound] (H-FQWQRNIRKVR-OH) | >20 mM |
| CSCC[C@H](NC(=O)[C@H](Cc1c[nH]c2ccccc12)NC(=O)[C@H](CCC(N)=O)NC(=O)[C@H](Cc1c[nH]c2ccccc12)NC(=O)[C@H](Cc1ccccc1)NC(=O)[C@H](CCCNC(=N)N)NC(=O)[C@H](CCCNC(=N)N)NC(=O)[C@H](CCC(=O)O)NC(=O)[C@H](CC(C)C)NC(=O)[C@@H]1CCCN1C(=O)[C@H](CO)NC(=O)[C@H](CC(=O)O)NC(=O)[C@H](CC(C)C)NC(=O)[C@H](CC(C)C)NC(=O)[C@H](CCCNC(=N)N)NC(=O)[C@H](CCCNC(=N)N)NC(=O)[C@@H](NC(=O)[C@H](CC(C)C)NC(=O)[C@H](CCC(=O)O)NC(=O)[C@H](CCC(N)=O)NC(=O)[C@H](CC(C)C)NC(=O)[C@H](CCC(N)=O)NC(=O)[C@H](CCC(=O)O)NC(=O)[C@H](CO)NC(=O)CNC(=O)[C@H](CCCNC(=N)N)NC(=O)[C@@H]1CCCN1C(=O)[C@@H](N)CCCCN)[C@@H](C)O)C(=O)N[C@@H](CCCNC(=N)N)C(=O)N[C@@H](CCCNC(=N)N)C(=O)O [UGK-37, KPRGSEQLQELTRRLLDSPLERRFWOWMRR] (H-KPRGSEQLQELTRRLLDSPLERRFWQWMRR-OH; N-terminus and C-terminus assumed) | >20 mM |
| CC(C)C[C@H](NC(=O)[C@H](CO)NC(=O)[C@H](CCCCN)NC(=O)[C@H](CC(C)C)NC(=O)[C@H](CCCCN)NC(=O)[C@H](CCC(=O)O)NC(=O)[C@H](CC(C)C)NC(=O)[C@H](CC(C)C)NC(=O)[C@H](CCC(=O)O)NC(=O)[C@H](CCC(=O)O)NC(=O)[C@H](CC(C)C)NC(=O)[C@H](CCCNC(=N)N)NC(=O)[C@H](CCCCN)NC(=O)[C@@H]1CCCN1C(=O)[C@@H](N)CCC(N)=O)C(=O)N[C@@H](CCC(=O)O)C(=O)NCC(=O)N[C@@H](CO)C(=O)N[C@@H](CCCCN)C(=O)N[C@@H](C)C(=O)N[C@@H](Cc1c[nH]cn1)C(=O)N[C@@H](CCC(=O)O)C(=O)N[C@@H](CCCCN)C(=O)N[C@@H](CC(C)C)C(=O)N[C@@H](Cc1c[nH]cn1)C(=O)N[C@@H](CC(=O)O)C(=O)N[C@@H](Cc1c[nH]c2ccccc12)C(=O)N[C@H](C(=O)N[C@@H](CCCNC(=N)N)C(=O)N[C@@H](CCCCN)C(=O)O)[C@@H](C)O [UGK-49] (H-QPKRLEELLEKLKSLEGSKAHEKLHDWTRK-OH; N-terminus and C-terminus assumed) | >20 mM |
